Test results from patent US6258790A, “Antisense modulation of integrin α4 expression” (Isis Pharmaceuticals, Inc., priority 1999, dated 2001).
Several values for one entry are separate records, joined by “and”; a condition that tells them apart may be missing. Equal entries are not always repeated.

Columns and labels:
murine integrin α4 mRNA [1] = test: Antisense inhibition of murine integrin α4 mRNA expression in P388D (IL-1) macrophage cells (RNA gel, PCR-labeled probe); assay type: cell-based, mouse; details: 100 nM; for % Control (murine integrin α4 mRNA) / % Inhib (murine integrin α4 mRNA): Table 8, P388D (IL-1) cells, 3 ug/ml lipofectin; for activity in the mRNA screen: Table 8 assay; for % Control / % Inhib.: Table 9, averages of duplicate samples
Procedure: Oligonucleotides were initially screened in murine P388D (IL-1) macrophage cells (American Type Culture Collection, Manassas Va.) for 4 hours at an oligonucleotide concentration of 100 nM in 3 ug/ml lipofectin.

human integrin α4 [2] = test: Inhibition of human integrin α4 protein levels by antisense oligonucleotides (LIPOFECTIN, flow cytometry with CD49d-FITC) in A375 melanoma cells; assay type: cell-based; details: Table 24; A375 cells; lipofectin; as Example 8
human integrin α4 [3] = test: Integrin α4 protein expression in A375 cells after electroporation of oligonucleotide (flow cytometry); assay type: cell-based; details: 24 hours
Procedure: A375 cells were treated with ISIS 107245, 107248, 107252, 107255 and 107259 by electroporation at 175 volts, r=1, c=1000, 0.2 ml Opti-MEM, 1×10^6 cells /ml, 2 mm gap electrode using a BTX Electro Cell Manipulator 600 (Genetronics, San Diego Calif.). Oligonucleotide concentrations were 1, 3, 10 and 30 μM. Cells were harvested 24 hours after oligonucleotide treatment and strained with 2 ug/ml CD49d-FITC for flow cytometry as in the previous examples.
ISIS 107248 was compared directly to ISIS 27104 for ability to inhibit integrin α4 expression in A375 melanoma cells. Oligonucleotides were electroporated into cells as in the previous example.

murine integrin α4 = test: Antisense inhibition of murine integrin α4 protein expression in IC-21 macrophage cells (flow cytometry, CD49d-PE); assay type: cell-based, mouse; details: for % Control (integrin α4 protein) / % Inhib (integrin α4 protein): Table 11
Procedure: Murine IC-21 macrophage cells (American Type Culture Collection, Manassas, Va.) were used for further study. Additional oligonucleotides were designed to target murine integrin α4. These are shown in Table 10; all 2' MOE nucleotides are shown in bold and remaining positions are 2' deoxy. All 2'-MOE cytosines in these compounds are 5' methylcytosines. IC-21 cells were seeded at 5×10^4 cell/well plates two days before assay. […] Wells were triplicates.
Cells (triplicates) were seeded at 2.5×10^4 cells/well in 24-well plates the day before treatment. Oligonucleotide concentrations were 0.2, 1, 5, 25 and 50 nM in 3 ug/ml LIPOFECTIN. Cells were harvested with 2 mM EDTA for 4 minutes, then 1 ml of 2% BSA, 0.2% azide was added per contents of each well.
IC-21 cells were treated with 0.3, 1, 3, 10 and 30 nM oligonucleotide with 3 ug/ml LIPOFECTIN for 4 hours. Cells were incubated for 24 hours, harvested with trypsin, stained with 2 ug/ml CD49d-PE and rat IgG2B as in previous examples.
These compounds were tested for ability to inhibit integrin α4 protein expression.

murine integrin α4 mRNA [4] = test: Antisense inhibition of murine integrin α4 mRNA expression in P388D (IL-1) macrophage cells (RNA gel, PCR-labeled probe); assay type: cell-based, mouse; details: Table 9, averages of duplicate samples
murine integrin α4 RNA = test: Dose response effect on integrin α4 RNA levels in IC-21 cells; assay type: cell-based, mouse; details: for Percent inhib. (integrin α4 RNA) / Percent of control (integrin α4 RNA): Table 14, duplicate
Procedure: another dose response experiment was done to determine the IC50 of ISIS 16433 for inhibition of integrin α4 RNA. IC-21 cells were tested in duplicate with ISIS 16433 at 6.25, 12.5, 25 or 50 nM with 3 ug/ml LIPOFECTIN.
RNA was purified with Qiagen Qiashredder/RNEASY™ Kit according to manufacturer's directions. Probes were random primed using a prime-a-Gene Kit (Promega, Madison, Wis.).

[5] = IC-21 cells, 25 nM, triplicates

## 15604 (antisense GGAGCGATCGTAGTGGCCAG; phosphorothioate DNA, further chemistry not given here) [compound 15604]
Murine integrin α4 mRNA [1]
  % Control (murine integrin α4 mRNA): 134%

## 107255 (antisense AAGTCTAAGACTTCTCCAGT; chemistry not given here) [compound 107255]
Human integrin α4 [2]
  % Control: 36%
Human integrin α4 [3]; Table 25, 1 nM as printed
  % Control: 50.6%
Human integrin α4 [3]; Table 25, 10 nM
  % Control: 22.9%
Human integrin α4 [3]; Table 25, 30 nM
  % Control: 19.4%

## 15603 (antisense GGATGCTTCAGGCTCTGGCC; phosphorothioate DNA, further chemistry not given here) [compound 15603]
Murine integrin α4 mRNA [1]
  % Control (murine integrin α4 mRNA): 38%
  % Inhib (murine integrin α4 mRNA): 62%

## 15609 (antisense CACCTCGCTTCCGCAGCCAT; phosphorothioate DNA, further chemistry not given here) [compound 15609]
Murine integrin α4 mRNA [1]
  % Control (murine integrin α4 mRNA): 07%
  % Inhib (murine integrin α4 mRNA): 93%
  activity in the mRNA screen: most active
  % Control: 57%
  % Inhib.: 43%
Murine integrin α4; [5]
  % Control (integrin α4 protein): 57%
  % Inhib (integrin α4 protein): 43%
Murine integrin α4 mRNA [4]; 12.5 nM
  % Control: 54%
  % Inhib.: 46%
Murine integrin α4 mRNA [4]; 25 nM
  % Control: 24%
  % Inhib.: 76%
Murine integrin α4 mRNA [4]; 50 nM
  % Control: 28%
  % Inhib.: 72%

## 107259 (antisense GGAACACAGCCCGTAGGAAA; chemistry not given here) [compound 107259]
Human integrin α4 [2]
  % Control: 37%
Human integrin α4 [3]; Table 25, 1 nM as printed
  % Control: 17.7%
Human integrin α4 [3]; Table 25, 10 nM
  % Control: 42.9%
Human integrin α4 [3]; Table 25, 30 nM
  % Control: 19.4%

## 16433 (CCGCAGCCATGCGCTCTTGG; phosphorothioate, 2'-MOE/deoxy, further chemistry not given here) [compound 16433]
Murine integrin α4; IC-21 cells
  IC50: ~1 nM
Murine integrin α4; IC-21 cells, 30 nM
  inhibition of protein levels: inhibit protein levels to below basal levels
Murine integrin α4; [5]
  % Control (integrin α4 protein): 23%
Murine integrin α4; IC-21 cells, 25 nM, triplicates, 0.025 µM
  % Inhib (integrin α4 protein): 77% and > 50%
Murine integrin α4; Table 12, 0.2 nM, triplicates
  % Inhib.: 15%
  % of control: 85%
Murine integrin α4; Table 12, 1 nM, triplicates
  % Inhib.: 38%
  % of control: 62%
Murine integrin α4; Table 12, 5 nM, triplicates
  % Inhib.: 63%
  % of control: 37%
Murine integrin α4; Table 12, 25 nM, triplicates
  % Inhib.: 80%
  % of control: 20%
Murine integrin α4; Table 12, 50 nM, triplicates
  % Inhib.: 70%
  % of control: 30%
Murine integrin α4; Table 13, 0.3 nM, 24 hours
  % Inhib.: 11%
  % of control: 89%
Murine integrin α4; Table 13, 1 nM, 24 hours
  % Inhib.: 32%
  % of control: 68%
Murine integrin α4; Table 13, 3 nM, 24 hours
  % Inhib.: 75%
  % of control: 25%
Murine integrin α4; Table 13, 10 nM, 24 hours
  % Inhib.: 97%
Murine integrin α4; Table 13, 30 nM, 24 hours
  % of control: -14%
Murine integrin α4; Table 16, 0.3 nM
  % Control: 146%
Murine integrin α4; Table 16, 1 nM
  % Control: 94%
Murine integrin α4; Table 16, 3 nM
  % Control: 64%
  % Inhib.: 36%
Murine integrin α4; Table 16, 10 nM
  % Control: 02%
  % Inhib.: 98%
Murine integrin α4 RNA; IC-21 cells, read-out: IC50 for integrin α4 RNA reduction
  IC50: ~10 nM
Murine integrin α4 RNA; 6.25 nM
  Percent inhib. (integrin α4 RNA): 41%
  Percent of control (integrin α4 RNA): 59%
Murine integrin α4 RNA; 12.5 nM
  Percent inhib. (integrin α4 RNA): 44%
  Percent of control (integrin α4 RNA): 46%
Murine integrin α4 RNA; 25 nM
  Percent inhib. (integrin α4 RNA): 72%
  Percent of control (integrin α4 RNA): 28%
Murine integrin α4 RNA; 50 nM
  Percent inhib. (integrin α4 RNA): 57%
  Percent of control (integrin α4 RNA): 43%

## 15606 (antisense GATGAAGTGCAGCAGCGTGT; phosphorothioate DNA, further chemistry not given here) [compound 15606]
Murine integrin α4 mRNA [1]
  % Control (murine integrin α4 mRNA): 72%
  % Inhib (murine integrin α4 mRNA): 28%

## 15602 (antisense CACGCCCCGTTTCTGTGGCC; phosphorothioate DNA, further chemistry not given here) [compound 15602]
Murine integrin α4 mRNA [1]
  % Control (murine integrin α4 mRNA): 48%
  % Inhib (murine integrin α4 mRNA): 52%

## 16478 (GCCGACACCCGTTCGTTCGG; phosphorothioate DNA, further chemistry not given here) [compound 16478]
Murine integrin α4; [5]
  % Control (integrin α4 protein): 92%
Murine integrin α4; Table 12, 5 nM, triplicates
  % of control: 95%
Murine integrin α4; Table 12, 25 nM, triplicates
  % Inhib.: 13%
  % of control: 87%
Murine integrin α4; Table 12, 50 nM, triplicates
  % Inhib.: 16%
  % of control: 84%
Murine integrin α4; Table 13, 0.3 nM, 24 hours
  % of control: 137%
Murine integrin α4; Table 13, 1 nM, 24 hours
  % of control: 131%
Murine integrin α4; Table 13, 3 nM, 24 hours
  % of control: 127%
Murine integrin α4; Table 13, 10 nM, 24 hours
  % of control: 130%
Murine integrin α4; Table 13, 30 nM, 24 hours
  % of control: 108%
Murine integrin α4 RNA; 6.25 nM
  Percent inhib. (integrin α4 RNA): 25%
  Percent of control (integrin α4 RNA): 75%
Murine integrin α4 RNA; 12.5 nM
  Percent inhib. (integrin α4 RNA): 40%
  Percent of control (integrin α4 RNA): 60%
Murine integrin α4 RNA; 25 nM
  Percent inhib. (integrin α4 RNA): 76%
  Percent of control (integrin α4 RNA): 24%
Murine integrin α4 RNA; 50 nM
  Percent inhib. (integrin α4 RNA): 74%
  Percent of control (integrin α4 RNA): 26%

## 107252 (antisense AAGAGTAATCATTGCTGAGA; chemistry not given here) [compound 107252]
Human integrin α4 [2]
  % Control: 35%
Human integrin α4 [3]; Table 25, 1 nM as printed
  % Control: 17.4%
Human integrin α4 [3]; Table 25, 10 nM
  % Control: 7.9%
Human integrin α4 [3]; Table 25, 30 nM
  % Control: 2.9%

## 107245 (antisense GTTGATATAACTCCAACTGT; chemistry not given here) [compound 107245]
Human integrin α4 [2]
  % Control: 35%
Human integrin α4 [3]; Table 25, 1 nM as printed
  % Control: 27.1%
Human integrin α4 [3]; Table 25, 10 nM
  % Control: 64.4%
Human integrin α4 [3]; Table 25, 30 nM
  % Control: 30.3%

## 15600 (antisense CACGCCCCGTTTCTGTGGCC; phosphorothioate, 2'-MOE, further chemistry not given here) [compound 15600]
Murine integrin α4 mRNA [1]
  % Control (murine integrin α4 mRNA): 93%
  % Inhib (murine integrin α4 mRNA): 07%

## 15601 (antisense CACGCCCCGTTTCTGTGGCC; phosphodiester, 2'-MOE, further chemistry not given here) [compound 15601]
Murine integrin α4 mRNA [1]
  % Control (murine integrin α4 mRNA): 60%
  % Inhib (murine integrin α4 mRNA): 40%

## 15605 (antisense CCGGTGCTGGCAGGCGACAG; phosphorothioate DNA, further chemistry not given here) [compound 15605]
Murine integrin α4 mRNA [1]
  % Control (murine integrin α4 mRNA): 84%
  % Inhib (murine integrin α4 mRNA): 16%

## 15608 (antisense CCGCAGCCATGCGCTCTTGG; phosphorothioate DNA, further chemistry not given here) [compound 15608]
Murine integrin α4 mRNA [1]
  % Control (murine integrin α4 mRNA): 16%
  % Inhib (murine integrin α4 mRNA): 84%
  activity in the mRNA screen: most active
  % Control: 39%
  % Inhib.: 61%
Murine integrin α4; [5]
  % Control (integrin α4 protein): 63%
  % Inhib (integrin α4 protein): 37%
Murine integrin α4 mRNA [4]; 12.5 nM
  % Control: 59%
  % Inhib.: 41%
Murine integrin α4 mRNA [4]; 25 nM
  % Control: 29%
  % Inhib.: 71%
Murine integrin α4 mRNA [4]; 50 nM
  % Control: 23%
  % Inhib.: 77%

## 15607 (antisense GGCCACTGACCAGAGTTGCA; phosphorothioate DNA, further chemistry not given here) [compound 15607]
Murine integrin α4 mRNA [1]
  % Control (murine integrin α4 mRNA): 26%
  % Inhib (murine integrin α4 mRNA): 74%
  activity in the mRNA screen: most active
  % Control: 55%
  % Inhib.: 45%
Murine integrin α4; [5]
  % Control (integrin α4 protein): 82%
  % Inhib (integrin α4 protein): 18%
Murine integrin α4 mRNA [4]; 12.5 nM
  % Control: 78%
  % Inhib.: 22%
Murine integrin α4 mRNA [4]; 25 nM
  % Control: 67%
  % Inhib.: 33%
Murine integrin α4 mRNA [4]; 50 nM
  % Control: 50%
  % Inhib.: 50%
